Data reported in patent publication US20170065564A1, “BIS-CYCLIC GUANIDINE COMPOUND COMPOSITIONS, METHODS OF USE AND TREATMENT THEREOF” (University of South Florida, priority 2014, published 2017).

How the values were obtained:
MRSA cells = experiment: Time kill assay (lysis by OD600, viability by CFU); assay type: cell-based, Staphylococcus aureus; conditions: for cell recovery (viability, CFU/mL vs no drug control): after the 120 minute assay, agent washed out; for cells remaining after exposure (optical density relative to starting values): MRSA, 2.0% SDS, 0.001% benzalkonium chloride, 0.001% benzethonium chloride
Procedure: FIGS. 6A and 6B illustrates that bis-cyclic guanidines are bactericidal but not bacteriolytic. […] Shown is the optical density of cells relative to starting values from three independent experiments. Error bars are shown ±SEM. FIG. 8B is a graph illustrating cell viability of all samples after the 120 min experiment. Compounds were removed by centrifugation and washing of cells, followed by serial dilution and enumeration. Percent recovery was determined by comparison to no drug (ND) controls.
Time kill assays were performed in a 96-well microtiter plate using a BioTek Synergy2 plate reader. To prepare bacterial cultures, stationary phase MRSA cells were inoculated into fresh TSB and grown for 3 hours. After this time, cultures were inoculated into a 96-well microtiter plate at an OD600 of 0.5, followed by the addition of test agent at MIC concentrations. In parallel, 2.0% sodium dodecyl sulfate (SDS), 0.001% benzalkonium chloride, 0.001% benzethonium chloride, and 4 μM lysostaphin were used as positive controls. […] Assays were performed in triplicate over the span of 130 minutes, with OD600 readings taken every 10 minutes.

S. aureus = experiment: Resistance serial passage assay; assay type: cell-based, Staphylococcus aureus; conditions: 8 passages, concentration doubled each day
Procedure: (§1) ESKAPE pathogens were grown overnight in liquid media at 37° C. These cultures were then diluted 1:100 in fresh media, and seeded into a 96-well plate. Lead bis-cyclic guanidines or control agents were added to respective wells at half MIC concentrations. Plates were then incubated for 24 hours at 37° C., with bacteria removed from these cultures on the following day, to inoculate fresh media (1:100 dilution) containing compounds at a 2-fold higher concentrations. These were then grown overnight, and the procedure repeated for a total of eight days. […] Each experiment was performed in triplicate, yielding identical results.

[1] = system: Staphylococcus aureus (USA300 strain FPR3757); experiment: Murine model of lethal peritonitis; assay type: in vivo, mice; conditions: I.V.
Procedure: Using MRSA as a representative ESKAPE organism, we infected mice with 1×10^8 bacterial cells in 5% mucin via intraperitoneal injection. At 1 h post-infection, mice were then I.V. injected with either vancomycin (positive control), or I.M. with our front runner compounds.
Six mice per group were injected with 1×10^8 CFU ml^−1 of Staphylococcus aureus (USA300 strain FPR3757) in PBS containing 5% mucin. […] Mice were monitored twice daily for five days to assess mortality. The clinical endpoint of this study was when the mice reached a pre-moribund state. Characteristics of pre-moribund state include: hunched posture, rapid, shallow and/or labored breathing, ruffled fur, lethargy, failure to respond to stimuli, soiled anogenital area, paralysis, paresis, head tilt, circling, vocalizations, non-purposeful movements and/or were unable to eat or drink. Those mice reaching this state prior to the completion of the 5 day infection period were euthanized. The number of mice surviving between control and treatment groups was compared and analyzed for statistical significance using a log rank test.

K. pneumoniae = experiment: Resistance serial passage assay; assay type: cell-based, Klebsiella pneumoniae; conditions: 8 passages, concentration doubled each day
Procedure: as §1

Enterobacter cloacae = experiment: MIC micro broth dilution assay; assay type: cell-based; set-up: key to stacked score activity, 100/MIC, E: stacked score = 100/MIC; conditions: E. cloacae
Procedure: (§2) For this study we used a representative panel of multi-drug resistant clinical ESKAPE pathogen isolates (Supplemental Table S6).^42 43 3a, 44 45 Gram-positive organisms were grown in tryptic soy broth media (TSB), whilst Gram-negative organisms were grown in lysogeny Broth (LB), as described by us previously. ^43 MIC and MBC determination assays.
(§3) Broth cultures of ESKAPE strains were grown overnight before being diluted 1 in 1,000 in fresh media. Sterile 96-well plates were loaded with culture and compounds (in DMF) were added at decreasing concentrations to equal a total volume of 200 μl per well. Care was taken to not add more than 2.0% DMF to any well. Plates were then incubated at 37° C., and MICs determined after 24 hours by visual inspection for a lack of turbidity in wells. All assays were performed in triplicate with identical results obtained. For both the scaffold ranking and positional scanning samples, relative broad-spectrum activity was determined via stacked scores: […]

Enterococcus faecium = experiment: MIC micro broth dilution assay; assay type: cell-based; set-up: key to stacked score activity, 100/MIC, E: stacked score = 100/MIC; conditions: E. faecium
Procedure: as §2, §3

ESKAPE pathogens = experiment: MIC micro broth dilution assay, statements and stacked scores over all ESKAPE pathogens; assay type: cell-based; conditions: letters E,S,K,A,P,E = ESKAPE pathogens, — = none
Procedure: as §2
as §3, with “The minimum inhibitory concentration (MIC) for the combinatorial libraries, deconvolved 2157 library, and individual compounds were determined as follows. Broth” for “Broth”

Klebsiella pneumoniae = experiment: MIC micro broth dilution assay; assay type: cell-based; set-up: key to stacked score activity, 100/MIC, K: stacked score = 100/MIC; conditions: K. pneumoniae
Procedure: as §2, §3

Staphylococcus aureus = experiment: MIC micro broth dilution assay; assay type: cell-based; set-up: key to stacked score activity, 100/MIC, S: stacked score = 100/MIC; conditions: S. aureus
Procedure: as §2, §3

Acinetobacter baumannii = experiment: MIC micro broth dilution assay; assay type: cell-based; set-up: key to stacked score activity, 100/MIC, A: stacked score = 100/MIC; conditions: A. baumannii
Procedure: as §2, §3

P. aeruginosa = experiment: MIC reanalysis in the presence of the efflux inhibitor reserpine; assay type: cell-based, Pseudomonas aeruginosa; conditions: P. aeruginosa isolate 1420; 100 μM of reserpine or 2 μM of compound 1 individually
Excerpt: Given the minor variations observed in MIC for three of the Gram-negative organisms, and that these particular bacteria are renowned for efflux detoxification of antibacterial agents, we hypothesized that the differences observed likely relate to variation in efflux pump activity between strains. […] The effects observed appear to be universal, regardless of strain or compound tested. […] It should be noted that the data presented herein represents a worst-case scenario. […] Similar data was returned for all front runner agents, against all 10 isolates of the three Gram-negative organisms (data not shown). These findings support the hypothesis that inherent efflux mechanisms of certain Gram-negative organisms result in MIC variations for the lead bis-cyclic guanidines between clinical isolates.

[2] = system: human red blood cells (hRBCs)
Procedure: A hemolysis assay was performed using whole human blood (Bioreclamation), as described previously,^47 with the following modifications. Human red blood cells (hRBCs) were resuspended 20% v/v in 1× HA buffer (4.25 ml 10% NaCl; 1 ml CaCl2 in 50 ml sterile water), and lead agents were added at a concentration of 10 μM, to a final volume of 100 μl. Cells were incubated for 15 minutes at 37° C. before being centrifuged at 5,500 g for 1 minute to pellet non-lysed hRBCs. The supernatant was removed, added to a 96-well microtiter plate and the OD543 read using a Biotek synergy2 plate reader. The negative control was vehicle only (DMF), and the positive control was 1.0% triton X-100.

Compound	stacked score activity, 100/MIC, E (Enterobacter cloacae)	stacked score activity, 100/MIC, E (Enterococcus faecium)	pathogens against which the compound showed activity at 10 ug/ml (ESKAPE pathogens)	pathogens against which the compound showed activity at 25 ug/ml (ESKAPE pathogens)	stacked score activity, 100/MIC, K (Klebsiella pneumoniae)	stacked score activity, 100/MIC, S (Staphylococcus aureus)	stacked score activity, 100/MIC, A (Acinetobacter baumannii)	also measured
benzalkonium chloride [listing 1 of 2 here]	–	–	–	–	–	–	–	cell recovery (viability, CFU/mL vs no drug control) (MRSA cells): 0%
CN[C@H](CC(C)C)C(=O)N[C@H]1C(=O)N[C@@H](CC(N)=O)C(=O)N[C@H]2C(=O)N[C@H]3C(=O)N[C@H](C(=O)N[C@H](C(=O)O)c4cc(O)cc(O)c4-c4cc3ccc4O)[C@H](O)c3ccc(c(Cl)c3)Oc3cc2cc(c3O[C@@H]2O[C@H](CO)[C@@H](O)[C@H](O)[C@H]2O[C@H]2C[C@](C)(N)[C@H](O)[C@H](C)O2)Oc2ccc(cc2Cl)[C@H]1O [vancomycin, reference compound]	–	–	–	–	–	–	–	increase in MIC after serial passage (S. aureus): 128 fold; protectivity ([1]; 5× MIC, 1 h post-infection (not significant)): 50%; protectivity ([1]; 10× MIC, 1 h post-infection): 100%
CC(C)(C)CC(C)(C)c1ccc(OCCOCC[N+](C)(C)Cc2ccccc2)cc1 [benzethonium chloride]	–	–	–	–	–	–	–	cells remaining after exposure (optical density relative to starting values) (MRSA cells): 32.63%; cell recovery (viability, CFU/mL vs no drug control) (MRSA cells): 0%
lysostaphin: a S. aureus specific lytic agent, positive control	–	–	–	–	–	–	–	cell recovery (viability, CFU/mL vs no drug control) (MRSA cells): 0%; lysis of MRSA cells (MRSA cells; within 10 minutes of exposure, 4 μM lysostaphin): > 50%
CO[C@H]1/C=C/O[C@@]2(C)Oc3c(C)c(O)c4c(O)c(c(/C=N/N5CCN(C)CC5)c(O)c4c3C2=O)NC(=O)/C(C)=C\C=C\[C@H](C)[C@H](O)[C@@H](C)[C@@H](O)[C@@H](C)[C@H](OC(C)=O)[C@@H]1C [rifampin, reference compound]	–	–	–	–	–	–	–	increase in MIC after serial passage (K. pneumoniae): 128 fold
CCCCCCCCCCCCOS(=O)(=O)[O-].[Na+] [SDS, sodium dodecyl sulfate]	–	–	–	–	–	–	–	cells remaining after exposure (optical density relative to starting values) (MRSA cells): 52.2%; cell recovery (viability, CFU/mL vs no drug control) (MRSA cells): 0%
benzalkonium chloride [listing 2 of 2 here]	–	–	–	–	–	–	–	cells remaining after exposure (optical density relative to starting values) (MRSA cells): 28.56%
C[C@H]1c2cccc(O)c2C(=O)C2=C(O)[C@]3(O)C(=O)C(C(N)=O)=C(O)[C@@H](N(C)C)[C@@H]3[C@@H](O)[C@@H]21 [doxycycline]	–	–	–	–	–	–	–	cell recovery (viability, CFU/mL vs no drug control) (MRSA cells): 92%
CCCC[C@H]1CN(CCCC[C@H]2CNC(=N)N2CCCCC2CCCCC2)C(=N)N1CCCCC1CCCCC1 [Compound 11]	20	50	ESKAPE	ESKAPE	20	20	25	pathogens against which the compound showed activity at 5 ug/ml (ESKAPE pathogens): ESAPE
COC(=O)[C@H]1[C@H]2C[C@@H]3c4[nH]c5cc(OC)ccc5c4CCN3C[C@H]2C[C@@H](OC(=O)c2cc(OC)c(OC)c(OC)c2)[C@@H]1OC [reserpine, reference compound]	–	–	–	–	–	–	–	effect on growth, agent alone (P. aeruginosa): no effect
N=C1NC[C@H](CCCCN2C[C@H](CC3CCCCC3)N(CCCCC3CCCCC3)C2=N)N1CCC12CC3CC(CC(C3)C1)C2 [Compound 26]	20	20	ESKAPE	ESKAPE	20	20	20	pathogens against which the compound showed activity at 5 ug/ml (ESKAPE pathogens): ESKAPE
CCC(C)[C@H]1CN(CCCC[C@H]2CNC(=N)N2CC2CCC(C)CC2)C(=N)N1CCc1cccc(C)c1 (stereo partly drawn) [Compound 50]	0	10	–	ESA	0	10	4	–
CCCCCCCN1C(=N)N(CCCC[C@H]2CNC(=N)N2CCCCC2CCCCC2)C[C@H]1Cc1cccc2ccccc12 [Compound 13]	20	20	ESKAE	ESKAPE	20	20	20	pathogens against which the compound showed activity at 5 ug/ml (ESKAPE pathogens): ESKAE
N=C1NC[C@H](CCCCN2C[C@H](CC3CCCCC3)N(CCCCC3CCCCC3)C2=N)N1CCc1cccc(C(F)(F)F)c1 [Compound 8]	20	20	ESKAPE	ESKAPE	20	10	20	pathogens against which the compound showed activity at 5 ug/ml (ESKAPE pathogens): EKAPE
N=C1NC[C@H](CCCCN2C[C@@H](Cc3cccc4ccccc34)N(CCc3ccc(-c4ccccc4)cc3)C2=N)N1CCCCC1CCCCC1 [Compound 15]	20	10	ESKE	ESKAPE	10	20	4	–
CCCCCCCN1C(=N)N(CCCC[C@H]2CNC(=N)N2CCCCC2CCCCC2)C[C@@H]1CCCC [Compound 10]	20	25	ESKAPE	ESKAPE	20	25	25	pathogens against which the compound showed activity at 4 ug/ml (ESKAPE pathogens; dose 4 ug/ml): ESAP; pathogens against which the compound showed activity at 5 ug/ml (ESKAPE pathogens): ESKAPE
Triton-X100	–	–	–	–	–	–	–	hemolysis [2]: 100%
